Among the data in publication PMC8041284, “Tunable Methacrylamides for Covalent Ligand Directed Release Chemistry” (Journal of the American Chemical Society, 2021) are inhibition values, retold here.

One may read the inhibition as the change of the read-out against control, counted positive when it falls.

BTK, sequence (Q06187 402-655 limits assumed): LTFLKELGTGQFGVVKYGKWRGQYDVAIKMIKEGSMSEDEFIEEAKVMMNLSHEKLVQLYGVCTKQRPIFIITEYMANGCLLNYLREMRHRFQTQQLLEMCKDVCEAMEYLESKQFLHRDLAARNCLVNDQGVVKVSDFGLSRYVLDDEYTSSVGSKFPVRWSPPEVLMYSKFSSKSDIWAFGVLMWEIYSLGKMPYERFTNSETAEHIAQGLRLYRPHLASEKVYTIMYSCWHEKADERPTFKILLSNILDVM

The first assay has as its target BTK (Homo sapiens, UniProt Q06187). Description: biochemical. The following applies: read-out: BTK inhibition (%).
In the case of `CC(=O)O[C@H]1CC[C@H]2[C@@H]3CCC4=CC(=O)CCC4=C3C=C[C@]12C` [PCM-0215062], the inhibition at 10 µM was 2.3%.

The same assay, now with this note: read-out: BTK inhibition (%), 0.75 uM BTK, […] probe 3l, 15 min preincubation.
On to `C[C@@H]1O[C@@H](O[C@H]2[C@H](O[C@H]3CC[C@@]4(C)[C@@H](CC[C@]5(C)[C@@H]4CC=C4[C@@H]6CC(C)(C)CC[C@]6(C(=O)O)CC[C@]45C)[C@]3(C)CO)OC[C@H](O[C@@H]3O[C@H](CO)[C@@H](O)[C@H](O)[C@H]3O)[C@@H]2O)[C@H](O)[C@H](O)[C@H]1O` [PCM-0216539], for which the inhibition at 10 µM was 52.5%.
With `CCC[C@H](NC(=O)/C(C#N)=C/c1cccc(Br)n1)c1ccccc1` [PCM-0095282], the inhibition at 10 µM was found to be 24.8%.
On the same count and under the same terms, the result for `Cc1ccccc1-n1c(Cn2ncc3c(N)ncnc32)nc2cccc(C)c2c1=O` [PCM-0095248] reads 4.1%.
Same read-out and setting: the result for `CN1CCN(c2nc(C3=C(c4c[nH]c5ccccc45)C(=O)NC3=O)c3ccccc3n2)CC1` [PCM-0095375] reads 57.9%; that for `CCOC(=O)c1ccc(N2NC(=O)/C(=C/c3ccc([N+](=O)[O-])o3)C2=O)cc1` [PCM-0095807], 64.9%.
Still for that read-out and setting: the result for `O=C(Nc1ccc([N+](=O)[O-])cc1O)Nc1ccccc1Br` [PCM-0215392] reads 73.1%.
As to `O=C(CNc1ccc2ccccc2c1)N/N=C/c1cc(Br)c(O)c(Br)c1O` [PCM-0215592], the inhibition at 10 µM was 47.9%.
The same measure, in the same setting: in the case of `Cc1ccc(NCCN(C)CCNc2ccnc3cc(Cl)ccc23)c2c(=O)c3ccccc3sc12` [PCM-0215874] it was 6.8%; in that of `Cc1ccsc1C(=CCCN1CCC[C@@H](C(=O)O)C1)c1sccc1C` [PCM-0214833], -7%; in that of `CCOC(=O)C=P(c1ccccc1)(c1ccccc1)c1ccccc1` [PCM-0216183], -14.7%.
In the case of `O=C(O)Cc1ccc(O)cc1` [PCM-0215121], the inhibition at 10 µM was 25.7%.
Same read-out and setting: in the case of `Cc1cccn2c(=O)c(-c3nnn[nH]3)cnc12` [PCM-0086031] it was -17%; in that of `C[C@@H]1CN(c2c(F)c(N)c3c(=O)c(C(=O)O)cn(C4CC4)c3c2F)C[C@H](C)N1` [PCM-0086271], 2.3%; in that of `CCCCCCCCOc1ccccc1C(=O)Nc1ccc(C(=O)OCC[N+](C)(CC)CC)cc1` [PCM-0095536], -64.6%.
Still for that read-out and setting: in the case of `O=C1NC(=O)/C(=C/c2ccc3c(c2)OC(F)(F)O3)S1` [PCM-0095357] it was 9.7%; in that of `CC(C)=CCC/C(C)=C/CC/C(C)=C/CC/C(C)=C/CC1=C(C)C(=O)c2ccccc2C1=O` [PCM-0216051], 2.3%.
Turning to `CC(C)=CCC/C(C)=C/Cc1c(O)c(CC=C(C)C)c2c(c1O)C(=O)C1=C[C@@H]3C[C@H]4C(C)(C)O[C@@](C/C=C(/C)C(=O)O)(C3=O)[C@@]14O2` [PCM-0216347], the inhibition at 10 µM was found to be 100%.
Still for that read-out and setting: the result for `C1=C2CCCN[C@H]2[C@@H]2C[C@H]1[C@H]1CCCCN1C2` [PCM-0095306] reads -2.6%.
Still for that read-out and setting: the result for `COc1cc(-c2oc3cc(O)cc(O)c3c(=O)c2O)ccc1O` [PCM-0216402] reads 73.4%; that for `CC1OC2OC3C(OCC(O)C3O)OC(=O)C34CCC(C)(C)CC3C3=CCC5C6(C)CC(O)C(OC7OC(CO)C(O)C(O)C7OC7OCC(OC(=O)CC(C)(O)CC(=O)OC1C(OC1OCC(O)C(O)C1O)C2O)C(O)C7O)C(C)(CO)C6CCC5(C)C3(C)CC4O` (stereo not shown) [PCM-0216328], -1.5%; that for `FC(F)(F)Oc1ccc(-c2ccc3nnc(C(F)(F)F)n3c2)cc1` [PCM-0216074], 7.7%.
On the same count and under the same terms, the result for `C[C@@H]1CC[C@@]2(OC1)O[C@H]1C[C@H]3[C@@H]4CC=C5C[C@@H](O[C@@H]6O[C@H](CO)[C@@H](O)[C@H](O)[C@H]6O)CC[C@]5(C)[C@H]4CC[C@]3(C)[C@H]1[C@@H]2C` [PCM-0216366] reads -20.1%; that for `Cc1cc(Nc2ncc3c(n2)N(C)C(=O)N(c2cc(NC(=O)c4cccc(C(F)(F)F)c4)ccc2C)C3)n(C)n1` [PCM-0215636], 104%; that for `CCCCCCC(O)C(=O)O` (stereo not shown) [PCM-0216106], -10%.
Regarding `CCC(=O)O[C@]1(C(=O)SCF)[C@H](C)C[C@H]2[C@@H]3C[C@H](F)C4=CC(=O)C=C[C@]4(C)[C@@]3(F)[C@@H](O)C[C@@]21C` [PCM-0214707], the inhibition at 10 µM worked out at 15.2%.
On the same count and under the same terms, in the case of `O=S(=O)(c1cccc2cnccc12)N1CCCNCC1` [PCM-0090675] it was -17.9%.
Same read-out and setting: in the case of `Cn1cnc(=N)c2[nH]cnc21` [PCM-0095527] it was -4.8%; in that of `Cc1nc2ccc(CN(C)c3ccc(C(=O)N[C@@H](CCC(=O)O)C(=O)O)s3)cc2c(=O)[nH]1` [PCM-0095076], 1.6%; in that of `CCCS(=O)(=O)Nc1ccc(F)c(C(=O)c2c[nH]c3ncc(Cl)cc23)c1F` [PCM-0094979], 23.4%.
Same read-out and setting: the result for `Cc1[nH]cnc1CN1CCc2c(c3ccccc3n2C)C1=O` [PCM-0215666] reads -3.4%; that for `CCc1cc(/C(C)=N/OCc2ccc(C3CCCCC3)c(C(F)(F)F)c2)ccc1CN1CC(C(=O)O)C1` [PCM-0215423], -62.8%.
For the compound `Cc1[nH]c(/C=C2\C(=O)Nc3ccc(F)cc32)c(C)c1C(=O)NCCN1CCCC1` [PCM-0216233], the inhibition at 10 µM was 18.7%.
In the case of `CC(O)c1cc(C(=O)N[C@@H](C)Cn2ccc(-c3ccc(C#N)c(Cl)c3)n2)n[nH]1` (stereo partly shown) [PCM-0215540], the inhibition at 10 µM was -20.8%.
The same measure, in the same setting: in the case of `CCCCc1nc2cc(/C=C/C(=O)NO)ccc2n1CCN(CC)CC` [PCM-0095187] it was 9.7%; in that of `CCCCCCCCCCCCOC(=O)CS(=O)(=O)O` [PCM-0215935], -12.8%.
The same measure, in the same setting: in the case of `C=CC(=O)N1CC[C@@H](Oc2nc(Nc3ccc(N4CCC(N5CCN(C)CC5)CC4)cc3)c(C(N)=O)nc2CC)C1` [PCM-0215788] it was 91%; in that of `c1cncc(-c2cn[nH]n2)c1` [PCM-0215871], 15.4%; in that of `C[C@]12CC[C@H](O)CC1=CC[C@@H]1[C@@H]2CC[C@]2(C)C(=O)CC[C@@H]12` [PCM-0214686], -24.9%.
Still for that read-out and setting: in the case of `COC(=O)[C@H](CC(C)C)NC(=O)c1ccc(NC[C@@H](N)CS)cc1-c1cccc2ccccc12` [PCM-0215717] it was -79.5%; in that of `Cc1cc(C)c2c(c1)[C@@H](N(Cc1cc(C(F)(F)F)cc(C(F)(F)F)c1)c1nnn(C)n1)CCCN2CC1CCC(C(=O)O)CC1` (stereo partly shown) [PCM-0095426], 16.3%.
Consider `Cn1c(-c2ccccc2C(F)(F)F)nnc1C12CCC(c3noc(C4CC(F)(F)C4)n3)(CC1)CC2` [PCM-0215687], for which the inhibition at 10 µM is -17%.
The same measure, in the same setting: in the case of `C=C1C[C@@]23CC[C@H]4[C@@](C)(CCC[C@@]4(C)C(=O)O[C@@H]4O[C@H](CO)[C@@H](O)[C@H](O)[C@H]4O)[C@@H]2CC[C@]1(O[C@@H]1O[C@H](CO)[C@@H](O)[C@H](O)[C@H]1O)C3` [PCM-0216413] it was 4.6%.
On the same count and under the same terms, the result for `CC(C)=C1C/C=C(\C)CC/C=C(\C)CC1=O` [PCM-0216542] reads -4.6%; that for `OC(Cn1cncn1)(Cn1cncn1)c1ccc(F)cc1F` [PCM-0086230], 9.3%; that for `CC(=O)O[C@]1(C)CC[C@@]23C[C@@H]1C(C)(C)[C@@H]2CC[C@H]3C` [PCM-0215054], 10.9%.
On the same count and under the same terms, the result for `CN1CCN(Cc2ccc(NC(=O)Cc3ccc(Oc4cc(NC(=O)C5CC5)ncn4)cc3)cc2C(F)(F)F)CC1` [PCM-0215373] reads 26.3%; that for `COc1cc([C@H]2OC[C@H]3[C@@H]2CO[C@@H]3c2ccc(O[C@@H]3O[C@H](CO)[C@@H](O)[C@H](O)[C@H]3O)c(OC)c2)ccc1O[C@@H]1O[C@H](CO)[C@@H](O)[C@H](O)[C@H]1O` [PCM-0216471], -6.9%.
Take `CC1(C)CCC(CN2CCN(c3ccc(C(=O)NS(=O)(=O)c4ccc(NCC5CCOCC5)c([N+](=O)[O-])c4)c(Oc4cnc5[nH]ccc5c4)c3)CC2)=C(c2ccc(Cl)cc2)C1` [PCM-0095632]: the inhibition at 10 µM is -5.4%.
Same read-out and setting: the result for `CC(=O)OCC(=O)[C@@]1(O)CC[C@H]2[C@@H]3CCC4=CC(=O)CC[C@]4(C)[C@@]3(F)[C@@H](O)C[C@@]21C` [PCM-0214907] reads -8.3%.
Consider `N#C/C(=C1/SC[C@@H](c2ccc(Cl)cc2Cl)S1)n1ccnc1` [PCM-0214788], for which the inhibition at 10 µM turned out to be 3.9%.
Still for that read-out and setting: the result for `COC(=O)c1ccc(O)cc1` [PCM-0215083] reads -5.4%; that for `COc1ccc2c(Oc3ccc(NC(=O)c4c(C)n(CC(C)(C)O)n(-c5ccccc5)c4=O)nc3)ccnc2c1` [PCM-0095484], 12.4%; that for `O=C[C@H](O)[C@H]1OC(=O)[C@@H](O)[C@H]1O` [PCM-0215140], -1.4%.
On to `CC(C)NC[C@@H](C(=O)N1CCN(c2ncnc3c2[C@H](C)C[C@H]3O)CC1)c1ccc(Cl)cc1` [PCM-0095420], for which the inhibition at 10 µM is -4.1%.
The same measure, in the same setting: the result for `Cc1cccc(Nc2nc(-c3ccncc3)cs2)c1` [PCM-0094960] reads -1.6%; that for `CNCc1cc(-c2ccccc2F)n(S(=O)(=O)c2cccnc2)c1` [PCM-0095606], 17%.
On to `CC[C@]1(O)C[C@H]2CN(CCc3c([nH]c4ccccc34)[C@@](C(=O)OC)(c3cc4c(cc3OC)N(C=O)[C@H]3[C@@](O)(C(=O)OC)[C@H](OC(C)=O)[C@]5(CC)C=CCN6CC[C@]43[C@@H]65)C2)C1` [PCM-0214794], for which the inhibition at 10 µM amounted to 9%.
On to `C[C@@H]1CC[C@H]2[C@@H](C)C(O)O[C@@H]3O[C@@]4(C)CC[C@@H]1[C@]32OO4` (stereo partly shown) [PCM-0214674], for which the inhibition at 10 µM is -20.2%.
Same read-out and setting: the result for `CN1CCN(C2=Nc3cc(Cl)ccc3Nc3ccccc32)CC1` [PCM-0064549] reads 4.7%.
The same measure, in the same setting: the result for `N[C@H]1C[C@@H]1c1ccccc1` [PCM-0095814] reads -6.2%.
Same read-out and setting: in the case of `N#Cc1c(Oc2ccc(F)c(NC(=O)Cc3cccc(C(F)(F)F)c3)c2)ccc2nc(NC(=O)C3CC3)sc12` [PCM-0215264] it was 37.9%.
On to `NC(=O)Nc1cc(-c2cccc(F)c2)sc1C(=O)N[C@H]1CCCNC1` [PCM-0095092], for which the inhibition at 10 µM was 86.9%.
Regarding `S=C(NCc1ccc2c(c1)OCO2)N1CCN(c2ncnc3c2oc2ccccc23)CC1` [PCM-0094997], the inhibition at 10 µM was 28.3%.
